Test results: ChEMBL document CHEMBL1201862, “PubChem BioAssay data set” (2004)
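Exposure lasted 48 hours, with cells grown in 96-well plates and compounds tested at five concentrations. GI50 marks 50% less growth.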 The source made the active and inactive calls. Cut-off read from the data, not from the text of the source: active = GI50 up to about 1.1 µM and inactive = higher.

Experiments:
Assay in all cases: DTP human tumour cell line panel, 48 h
A498 = tested on: A498
A549 = tested on: A549
ACHN = tested on: ACHN
CCRF-CEM = tested on: CCRF-CEM
IGROV-1 = tested on: IGROV-1
KM-20L2 = tested on: KM-20L2
KM12 = tested on: KM12
M14 = tested on: M14
NCI-H226 = tested on: NCI-H226
NCI-H23 = tested on: NCI-H23
NCI-H522 = tested on: NCI-H522
OVCAR-5 = tested on: OVCAR-5
OVCAR-8 = tested on: OVCAR-8
SK-MEL-2 = tested on: SK-MEL-2
SK-MEL-5 = tested on: SK-MEL-5
SR = tested on: SR
UACC-257 = tested on: UACC-257
BT-549 = tested on: BT-549
Hs-578T = tested on: Hs-578T
PC-3 = tested on: PC-3

Measured: GI50

N#CC(C(=O)C(=O)Nc1ccc(Cl)c(Cl)c1)c1ccc(Cl)cc1 (configuration not stated)
inactive: A498 > 100 µM | A549 97.3 µM | ACHN 83 µM | CCRF-CEM 48.1 µM | IGROV-1 > 100 µM | KM-20L2 > 100 µM | KM12 > 100 µM | M14 > 100 µM | NCI-H226 > 100 µM | NCI-H23 > 100 µM | NCI-H522 25.2 µM | OVCAR-5 > 100 µM | OVCAR-8 > 100 µM | SK-MEL-2 34.2 µM | SK-MEL-5 74.8 µM | SR 51.9 µM | UACC-257 > 100 µM

CCCCCCCC/C=C1\CCC(CN2CCOCC2)C1=O (configuration not stated)
inactive: A498 15.8 µM | A549 15 µM | ACHN 16.4 µM | BT-549 10.8 µM | CCRF-CEM 2.79 µM | Hs-578T 4.36 µM | IGROV-1 7.35 µM | KM-20L2 16.3 µM | KM12 3.41 µM | M14 5.37 µM | NCI-H226 17.4 µM | NCI-H23 10.2 µM | NCI-H522 2.69 µM | OVCAR-5 20.4 µM | OVCAR-8 3.83 µM | PC-3 11.2 µM | SK-MEL-2 14.8 µM | SK-MEL-5 10.1 µM | SR 2.13 µM | UACC-257 8.67 µM
